Source: EP1145714A1, “DRUGS” (Takeda Chemical Industries, Ltd., priority 1998, dated 2000)

Legend:
[1] = test system: cisplatin-induced acute vomiting in dogs; assay: Cisplatin-induced acute vomiting in dogs, compound orally given; assay type: in vivo, beagle dogs; details: cisplatin 3 mg/kg i.v.; for Duration of vomiting (in hour;, mean ± SD) / Frequency of vomiting (mean ± SD) / Number of dogs with vomiting/number of tested dogs / Time period until first vomiting (in hour;, mean ± SD): 5 hours
Protocol: 3 or 4 beagle dogs (7.9 to 13.3 kg), male or female, were used per one group. Cisplatin was intravenously administered at 3 mg/3 ml/kg. One hour before cisplatin dosing, a small volume of a feed was given to the animals. 30 minutes before cisplatin administration, predetermined doses of the compound No. 3 were orally given. Similarly, 0.5 % methyl cellulose solution was orally given to the control animals under no fasting. The frequency of vomiting was counted in number, up to 5 hours after cisplatin dosing.
(§1) The compound No. 3 was suspended in 0.5 % methyl cellulose solution to predetermined concentrations, for oral dosing at a ratio of 1 ml per 1 kg body weight. Additionally, the 0.5 % methyl cellulose solution was orally given at a ratio of 1 ml per 1 kg body weight. The data relating to the frequency of vomiting, the time period (latency) until first vomiting and the time period from the occurrence of vomiting to the termination thereof were statistically analyzed by the Dunnett test, with reference to the difference from the control group.
The acute retching suppression ratio and acute vomiting suppression ratio were calculated by the following formula. [Frequency of retching or vomiting in control] - [Frequency of retching or vomiting in animals dosed with the compound No. 3] / [Frequency of retching or vomiting in control] x 100 (%) [formula]

[2] = test system: cisplatin-induced acute vomiting in dogs; assay: Cisplatin-induced acute vomiting in dogs, compound intravenously given; assay type: in vivo, beagle dogs; details: cisplatin 3 mg/kg i.v.; for Duration of vomiting (in hour;, mean ± SD) / Frequency of vomiting (mean ± SD) / Number of dogs with vomiting/number of tested dogs / Time period until first vomiting (in hour;, mean ± SD): 5 hours
Protocol: Male or female 3 beagle dogs (7.3 to 12.0 kg) per one group were used. Cisplatin was intravenously administered at 3 mg/3 ml/kg. 30 minutes before cisplatin administration, predetermined doses of the compound No. 3 were intravenously given to the animals under fasting. Similarly, a predetermined volume of PEG 400 was intravenously given to a control animal group under fasting.
as §1, with “dissolved” for “suspended”, “PEG 400” for “0.5 % methyl cellulose solution”, “intravenous” for “oral”, “PEG 400” for “the 0.5 % methyl cellulose solution”, “intravenously” for “orally”, “latency” for “time period (latency) until first vomiting”
The acute retching suppression ratio and acute vomiting suppression ratio were determined in the same manner as in Example 1,3.

SMILES: Cc1ccc(-c2c3n(c(=O)c4ncccc24)CC[C@@H](C)CN(Cc2cc(C(F)(F)F)cc(C(F)(F)F)c2)C3=O)cc1 [Cpd. No.3, (9R)-7-[3,5-bis(trifluoromethyl)benzyl]-6,7,8,9,10,11-hexahydro-9-methyl-5-(4-methylphenyl)-6,13-dioxo-13H-[1,4]diazocino[2,1-g][1,7]naphthylidine]
- Suppression ratio of acute vomiting ([1]; 1 mg/kg p.o.): 18 % NS
- Duration of vomiting (in hour;, mean ± SD) ([1]; 1 mg/kg p.o.): 1.5 ± 0.2 h
- Frequency of vomiting (mean ± SD) ([1]; 1 mg/kg p.o.): 11.3 ± 0.5
- Number of dogs with vomiting/number of tested dogs ([1]; 1 mg/kg p.o.): 4/4
- Time period until first vomiting (in hour;, mean ± SD) ([1]; 1 mg/kg p.o.): 1.6 ± 0.2 h
- Effect on cisplatin-induced vomiting (in words) ([1]; 3 mg/kg or higher p.o.): significantly suppressed
- Suppression ratio of acute vomiting ([1]; 3 mg/kg p.o.): 54 % NS
- Duration of vomiting (in hour;, mean ± SD) ([1]; 3 mg/kg p.o.): 1.1 ± 0.2 h
- Frequency of vomiting (mean ± SD) ([1]; 3 mg/kg p.o.): 6.3 ± 0.8 a
- Number of dogs with vomiting/number of tested dogs ([1]; 3 mg/kg p.o.): 4/4
- Time period until first vomiting (in hour;, mean ± SD) ([1]; 3 mg/kg p.o.): 1.9 ± 0.1 h
- Effect on cisplatin-induced vomiting (in words) ([1]; 10 mg/kg p.o.): almost completely suppressed
- Effect on the latency (in words) ([1]; 10 mg/kg p.o.): prolonged
- Suppression ratio of acute vomiting ([1]; 10 mg/kg p.o.): 93 % b
- Duration of vomiting (in hour;, mean ± SD) ([1]; 10 mg/kg p.o.): 0.2 ± 0.2 a hour
- Frequency of vomiting (mean ± SD) ([1]; 10 mg/kg p.o.): 1.0 ± 0.7 a
- Number of dogs with vomiting/number of tested dogs ([1]; 10 mg/kg p.o.): 2/4
- Time period until first vomiting (in hour;, mean ± SD) ([1]; 10 mg/kg p.o.): 3.6 ± 0.8 a hour
- Suppression ratio of acute vomiting ([2]; 0.3 mg/kg i.v.): 34 % b
- Duration of vomiting (in hour;, mean ± SD) ([2]; 0.3 mg/kg i.v.): 1.6 ± 0.2 h
- Frequency of vomiting (mean ± SD) ([2]; 0.3 mg/kg i.v.): 12.0 ± 1.5a
- Number of dogs with vomiting/number of tested dogs ([2]; 0.3 mg/kg i.v.): 3/3
- Time period until first vomiting (in hour;, mean ± SD) ([2]; 0.3 mg/kg i.v.): 1.6 ± 0.2 h
- Effect on cisplatin-induced vomiting (in words) ([2]; 0.3 mg/kg or higher i.v.): significantly suppressed
- Suppression ratio of acute vomiting ([2]; 1 mg/kg i.v.): 71 % b
- Duration of vomiting (in hour;, mean ± SD) ([2]; 1 mg/kg i.v.): 1.7 ± 0.5 h
- Frequency of vomiting (mean ± SD) ([2]; 1 mg/kg i.v.): 5.3 ± 1.2 a
- Number of dogs with vomiting/number of tested dogs ([2]; 1 mg/kg i.v.): 3/3
- Time period until first vomiting (in hour;, mean ± SD) ([2]; 1 mg/kg i.v.): 1.4 ± 0.3 h
- Effect on cisplatin-induced vomiting (in words) ([2]; 3 mg/kg i.v.): almost completely suppressed
- Suppression ratio of acute vomiting ([2]; 3 mg/kg i.v.): 96 % b
- Duration of vomiting (in hour;, mean ± SD) ([2]; 3 mg/kg i.v.): 0.1 ± 0.1 a hour
- Frequency of vomiting (mean ± SD) ([2]; 3 mg/kg i.v.): 0.7 ± 0.7 a
- Number of dogs with vomiting/number of tested dogs ([2]; 3 mg/kg i.v.): 1/3
- Time period until first vomiting (in hour;, mean ± SD) ([2]; 3 mg/kg i.v.): 3.9 ± 1.1 a hour
- Effect on the latency (in words) ([2]; i.v.): prolonged
